Laboratory results taken from patent publication US7592329B2, “Crystalline complexes of fluticasone-2-furoate” (Glaxo Group Limited, priority 2003, dated 2009).
Entries after “also recorded” stand apart in the source; their conditions may differ.

Experiments:
thymus involution = assay: Rat model of thymus involution; format: in vivo; conditions: 3 daily IT doses of 100 μg
human hepatocytes = assay: In vitro metabolism in human hepatocytes; format: in vitro ADME; conditions: 17-β carboxylic acid (X) the only significant metabolite
rat hepatocytes = assay: In vitro metabolism in rat hepatocytes; format: in vitro ADME; conditions: 17-β carboxylic acid (X) the only significant metabolite
[1] = Pharmacokinetics after intravenous (IV) and oral dosing in rats; format: in vivo, male Wistar Han rats; conditions: rat
[2] = Pharmacokinetics after intra-tracheal dry powder dosing in the pig; format: in vivo; conditions: for time after dosing up to which quantifiable in plasma: anaesthetised pigs, 1 mg intra-tracheal, LLOQ 10 pg/mL compound (I), 20 pg/mL fluticasone propionate
Protocol: Serial blood samples were taken for up to 8 h following dosing.

[3] = Pharmacokinetics after intravenous administration in the anaesthetised pig; format: in vivo; conditions: IV mixture of the two compounds at 0.1 mg/kg
Excerpt: The clearance of these two glucocorticoids is similar is this experimental pig model.

[4] = Lung absorption (mean absorption time) in man; format: in vivo; conditions: average; for time taken for 90% of lung dose to be absorbed: mathematical deconvolution of plasma concentration time data
human lung tissue = assay: In vitro human lung tissue affinity experiments; format: in vitro ADME
[5] = test system: human bronchial epithelial cells; assay: Cell transport and accumulation studies using human bronchial epithelial cells; format: in vitro ADME
[6] = molecular target: glucocorticoid receptor (GR) (Homo sapiens, UniProt P04150); assay: Transactivation (GR) renilla luciferase reporter assay in A549 cells; format: cell-based; conditions: GRE renilla luciferase reporter, read-out: Transactivation (GR) ED50
Excerpt: The glucocorticoid receptor (GR) can function in at least two distinct mechanisms, by upregulating gene expression through the direct binding of GR to specific sequences in gene promotors, and by downregulating gene expression that is being driven by other transcription factors (such as NFκB or AP-1) through their direct interaction with GR.
The first cell line contains the firefly luciferase reporter gene under the control of a synthetic promoter that specifically responds to activation of the transcription factor NFκB when stimulated with TNFα. The second cell line contains the renilla luciferase reporter gene under the control of a synthetic promotor that comprises 3 copies of the consensus glucocorticoid response element, and which responds to direct stimulation by glucocorticoids. Simultaneous measurement of transactivation and transrepression was conducted by mixing the two cell lines in a 1:1 ratio in 96 well plate (40,000 cells per well) and growing overnight at 37° C. Test compounds were dissolved in DMSO, and added to the cells at a final DMSO concentration of 0.7%. After incubation for 1 h 0.5 ng/ml TNFα (R&D Systems) was added and after a further 15 hours at 37° C., the levels of firefly and renilla luciferase were measured using the Packard Firelite kit following the manufacturers' directions. Dose response curves were constructed from which EC50 values were determined.

glucocorticoid receptor = molecular target: T1, glucocorticoid receptor (Homo sapiens, UniProt P04150); assay: In vitro functional glucocorticoid assays, metabolite versus parent; format: cell-based
T1 sequence (P04150 1-777): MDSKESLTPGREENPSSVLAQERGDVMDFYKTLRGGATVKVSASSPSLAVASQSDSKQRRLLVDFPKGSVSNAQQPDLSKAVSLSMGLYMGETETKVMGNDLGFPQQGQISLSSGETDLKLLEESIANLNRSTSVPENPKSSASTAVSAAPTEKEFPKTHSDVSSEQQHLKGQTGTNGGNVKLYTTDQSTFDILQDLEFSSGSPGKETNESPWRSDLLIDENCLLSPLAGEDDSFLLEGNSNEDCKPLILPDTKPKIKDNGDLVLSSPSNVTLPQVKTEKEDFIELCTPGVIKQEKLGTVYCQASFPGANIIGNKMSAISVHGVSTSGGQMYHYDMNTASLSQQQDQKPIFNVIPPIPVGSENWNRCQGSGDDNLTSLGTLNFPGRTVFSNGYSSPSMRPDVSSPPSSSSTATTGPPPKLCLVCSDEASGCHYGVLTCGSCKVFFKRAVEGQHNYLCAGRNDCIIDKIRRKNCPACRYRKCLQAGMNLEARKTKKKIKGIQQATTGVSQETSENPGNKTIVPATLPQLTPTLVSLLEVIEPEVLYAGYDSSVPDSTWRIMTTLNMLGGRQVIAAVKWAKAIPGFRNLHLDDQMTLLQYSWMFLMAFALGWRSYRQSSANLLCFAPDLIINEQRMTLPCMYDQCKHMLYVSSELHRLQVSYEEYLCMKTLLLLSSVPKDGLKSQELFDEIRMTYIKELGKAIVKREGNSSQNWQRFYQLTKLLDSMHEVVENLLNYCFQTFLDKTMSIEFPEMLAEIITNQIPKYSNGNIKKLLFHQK
Protocol: Compound (I) undergoes highly efficient hepatic metabolism to yield the 17-β carboxylic acid (X) as the sole major metabolite in rat and human in vitro systems.
Pharmacological activity was assessed in a functional in vitro assay of glucocorticoid agonist activity which is generally predictive of anti-inflammatory or anti-allergic activity in vivo.
The functional assay was based on that described by K. P. Ray et al., Biochem J. (1997), 328, 707-715. A549 cells stably transfected with a reporter gene containing the NF-κB responsive elements from the ELAM gene promoter coupled to sPAP (secreted alkaline phosphatase) were treated with test compounds at appropriate doses for 1 hour at 37° C. The cells were then stimulated with tumour necrosis factor (TNF, 10 ng/ml) for 16 hours, at which time the amount of alkaline phosphatase produced is measured by a standard colourimetric assay. […]
In a variant of the above method, to monitor these functions, two reporter plasmids have been generated and introduced separately into A549 human lung epithelial cells by transfection. […] After incubation for 1 h 0.5 ng/ml TNFα (R&D Systems) was added and after a further 15 hours at 37° C., the levels of firefly and renilla luciferase were measured using the Packard Firelite kit following the manufacturers' directions. Dose response curves were constructed from which EC50 values were determined.

SMILES	reduction of thymus weight (thymus involution)	manner of metabolism (human hepatocytes)	manner of metabolism (rat hepatocytes)	bioavailability ([1]; male, Wistar Han, plasma, oral, 0.1 mg/kg, oral 0.1 mg/kg vs IV 0.1 mg/kg)	plasma clearance (in words) ([1]; in vivo)	time after dosing up to which quantifiable in plasma [2]	systemic exposure compared with fluticasone propionate ([2]; dry powder delivery to the lungs of anaesthetised pigs)	clearance compared with fluticasone propionate [3]	mean absorption time (MAT) [4]	time taken for 90% of lung dose to be absorbed [4]	affinity for human lung tissue (human lung tissue)	accumulation within the cell layer compared with fluticasone propionate [5]	flux across the cell layer compared with fluticasone propionate [5]	EC50 [6]	fold less active than the parent compound (glucocorticoid receptor)
C[C@@H]1CC2C3C[C@H](F)C4=CC(=O)C=C[C@]4(C)[C@@]3(F)[C@@H](O)C[C@]2(C)[C@@]1(OC(=O)c1ccco1)C(=O)SCF (stereo partly drawn) [Compound of Formula (I), 6α,9α-Difluoro-17α-[(2-furanylcarbonyl)oxy]-11β-hydroxy-16α-methyl-3-oxo-androsta-1,4-diene-17β-carbothioic acid S-fluoromethyl ester]	67%	metabolised in an identical manner to fluticasone propionate	metabolised in an identical manner to fluticasone propionate	0.9%	approaching hepatic blood flow	up to 2 hours	markedly reduced systemic exposure; also recorded: significantly lower exposure	similar	12 h	21 h	significantly higher affinity	greater accumulation	reduced flux	–	–
CCC(=O)O[C@]1(C(=O)SCF)[C@H](C)C[C@H]2[C@@H]3C[C@H](F)C4=CC(=O)C=C[C@]4(C)[C@@]3(F)[C@@H](O)C[C@@]21C [Fluticasone propionate, 6α,9α-Difluoro-17α-(1-oxopropoxy)-11β-hydroxy-16α-methyl-3-oxo-androsta-1,4-diene-17β-carbothioic acid S-fluoromethyl ester, reference compound]	78%	–	–	–	–	up to 8 hours	–	–	2.1 h	11 h	–	–	–	–	–
C[C@@H]1CC2C3C[C@H](F)C4=CC(=O)C=C[C@]4(C)[C@@]3(F)[C@@H](O)C[C@]2(C)[C@@]1(OC(=O)c1ccco1)C(=O)O (stereo partly shown) [Metabolite (X)]	–	–	–	–	–	–	–	–	–	–	–	–	–	> 250 nM	> 1000 fold
